Assay results taken from patent publication US12686664B2, “SOCE inhibitors and therapeutic uses thereof” (Institut National de la Santé et de la Recherche Médicale …, priority 2020, dated 2026).
Where a name gives a salt, the structure may show the parent alone. Read-outs that look alike come from different tables or passages of the source. Marks after values point to notes of the source that are not given here.

Test system: store-operated Ca^2+ entry in PLP-B lymphocytes
Test: Store-operated Ca2+ entry after thapsigargin depletion of ER Ca2+ stores in PLP-B lymphocytes
Assay type: cell-based
Conditions: for IC50: SOCE in PLP-B lymphocytes, average of three assays, ±0.5 μM
Method: The effects of the molecules developed were tested on PLP-B lymphocytes. Store-operated Ca^2+ entry was induced by depletion of Endoplasmic Reticulum Ca^2+ stores (ER Ca^2+ stores) with thapsigargin (Tg) in a Ca^2+-free medium and measured following the addition of 1.8 mM of CaCl2) in the extracellular medium. The results are compared to the results obtained for known SOCE inhibitors SKF-96365, GSK-7975A, Synta 66.

[1] = Lymphocyte, 50 μM, PLP-B lymphocytes, % of inhibition (−) or activation, DMSO control 100%, read-out: Effect on amplitude of SOCE Peak
[2] = Lymphocyte, 100 μM, PLP-B lymphocytes, % of inhibition (−) or activation, DMSO control 100%, read-out: Effect on amplitude of SOCE Peak
[3] = Lymphocyte, 10 μM, PLP-B lymphocytes, % of inhibition (−) or activation, DMSO control 100%, read-out: Effect on amplitude of SOCE Peak
[4] = Lymphocyte, 10 μM, thapsigargin (Tg) peak, PLP-B lymphocytes, % of inhibition (−) or activation, read-out: Effect on amplitude of Tg Peak
[5] = Lymphocyte, 50 μM, thapsigargin (Tg) peak, PLP-B lymphocytes, % of inhibition (−) or activation, read-out: Effect on amplitude of Tg Peak
[6] = Lymphocyte, 100 μM, thapsigargin (Tg) peak, PLP-B lymphocytes, % of inhibition (−) or activation, read-out: Effect on amplitude of Tg Peak
[7] = Lymphocyte, PLP-B lymphocytes, % of inhibition (−) or activation, DMSO control 100%, read-out: Effect on amplitude of SOCE Peak
[8] = Lymphocyte, thapsigargin (Tg) peak, PLP-B lymphocytes, % of inhibition (−) or activation, read-out: Effect on amplitude of Tg Peak
[9] = Lymphocyte, 1 μM, PLP-B lymphocytes, % of inhibition (−) or activation, DMSO control 100%, read-out: Effect on amplitude of SOCE Peak
[10] = Lymphocyte, 1 μM, thapsigargin (Tg) peak, PLP-B lymphocytes, % of inhibition (−) or activation, read-out: Effect on amplitude of Tg Peak

Compound | inhibition at 50 µM [1] | inhibition at 100 µM [2] | inhibition at 10 µM [3] | inhibition at 10 µM [4] | inhibition at 50 µM [5] | inhibition at 100 µM [6] | further results
COc1ccc(COc2ccc(CCn3ccc(C(F)(F)F)n3)cc2)cc1 [6βq DAD 2.333] | 5% | 37% |  |  |  |  | 
FC(F)(F)c1ccn(CCc2ccc(OCCCc3ccccc3)cc2)n1 [6βt DAD 3.363] | 7.7% | 19.1% |  |  |  |  | 
COc1ccc(COc2ccc(CCn3nc(C(F)(F)F)cc3C(F)(F)F)cc2)cc1 [6βu DAD 2.334] | -0.2% | -0.4% | 2% |  |  |  | 
COc1ccc(CCOc2ccc(CCn3nc(C(F)(F)F)cc3C(F)(F)F)cc2)cc1 [6βv DAD 2.266] | 29% | 30% |  |  |  |  | 
COc1ccc(CCCOc2ccc(CCn3nc(C(F)(F)F)cc3C(F)(F)F)cc2)cc1 [6βw DAD 2.335] | -0.1% | 11.8% | 4.6% |  |  |  | 
COc1ccc(CCCOc2cccc(CCn3ccc(C(F)(F)F)n3)c2)cc1 [6βy DAD 3.531] | 34% | 64% | 13% | 17% | 23% | 30% | 
COc1ccc(CCOc2ccccc2CCn2nc(C(F)(F)F)cc2C(F)(F)F)cc1 [6βz DAD 3.536] | 37% | 40% | 30% | 9% | 12% | 8% | 
CS(=O)(=O)Oc1ccc(Cn2cnc3ccccc32)cc1 [8αa, 4-((1H-Benzo[d]imidazol-1-yl)methyl)phenyl methanesulfonate] | 9% | 23% | 20% | -1% | -5% | 7% | 
CS(=O)(=O)Oc1ccc(Cn2c(C(F)(F)F)nc3ccccc32)cc1 [8αc, 4-((2-(Trifluoromethyl)-1H-benzo[d]imidazol-1-yl)methyl)phenyl methane sulfonate] | 9% | 24% | 14% | -10% | -10% | 32% | 
CS(=O)(=O)Oc1ccc(Cn2cccn2)cc1 [8βa, 4-((1H-Pyrazol-1-yl)methyl)phenylmethanesulfonate] |  |  |  |  |  |  | Effect on amplitude of SOCE peak (10 μM, PLP-B lymphocytes, % of inhibition (−) or activation, DMSO control 100%): −30.0# %; Effect on amplitude of Tg Peak (10 μM, thapsigargin (Tg) peak, PLP-B lymphocytes, % of inhibition (−) or activation): −20.0# %; Effect on amplitude of SOCE peak (50 μM, PLP-B lymphocytes, % of inhibition (−) or activation, DMSO control 100%): −27.0# %; Effect on amplitude of Tg Peak (50 μM, thapsigargin (Tg) peak, PLP-B lymphocytes, % of inhibition (−) or activation): −14.0// %; Effect on amplitude of SOCE peak (100 μM, PLP-B lymphocytes, % of inhibition (−) or activation, DMSO control 100%): −25.0# %; Effect on amplitude of Tg Peak (100 μM, thapsigargin (Tg) peak, PLP-B lymphocytes, % of inhibition (−) or activation): −12.0// %
CS(=O)(=O)Oc1ccc(Cn2cncn2)cc1 [8βb, 4-((1H-1,2,4-Triazol-1-yl)methyl)phenyl methanesulfonate] | 41% | 35% | 27% | 3% | -2% | 6% | inhibition at 0.1 µM [7]: 19%; inhibition at 0.1 µM [8]: 23%; inhibition at 1 µM [9]: 23%; inhibition at 1 µM [10]: 9%
CS(=O)(=O)Oc1ccc(Cn2nc(C(F)(F)F)cc2C(F)(F)F)cc1 [8βc] | 22% | 31% | 12% | -4% | 2% | 21% | 
Oc1ccc(Cn2cnc3ccccc32)cc1 [9αa, 1-(4-hydroxyphenylmethyl)-1H-Benzo[d]imidazol] | 4% | -3% | -2% | -13% | 1% | 12% | 
Oc1ccc(Cn2c(C(F)(F)F)nc3ccccc32)cc1 [9αc, 1-(4-hydroxyphenylmethyl)-2-trifluoromethyl-1H-Benzo[d]imidazol] | 16% | 33% | 23% | 6% | -1% | -6% | 
Oc1ccc(Cn2cnc3cc(F)ccc32)cc1 [9αe] | 5% | 21% | -6% | 3% | 8% | 15% | 
c1ccc2c(c1)ncn2CCc1ccc(OCCc2ccc(OC3CCCCO3)cc2)cc1 (centres unmarked) [11αb, 1-(4-(4-((Tetrahydro-2H-pyran-2-yl)oxy)phenethoxy)phenethyl)-1H-benzo[d]imidazole] | 51% |  | 29% | -2% | 2% |  | inhibition at 0.1 µM [7]: -28%; inhibition at 0.1 µM [8]: -11%; inhibition at 1 µM [9]: -41%; percent change in peak amplitude vs DMSO control (negative = inhibition, positive = activation) at 1 µM [10]: 0%; inhibition at 5 µM [7]: -16%; inhibition at 5 µM [8]: 2%; IC50 (Lymphocyte): 6.8 µM
Fc1ccc2c(c1)ncn2CCc1ccc(OCCc2ccc(OC3CCCCO3)cc2)cc1 (centres unmarked) [11αc, 5-Fluoro-1-(4-(4-((tetrahydro-2H-pyran-2-yl)oxy)phenethoxy)phenethyl)-1H-benzo[d]imidazole] | 54% | 35% | 31% | 10% | 12% | -3% | inhibition at 0.1 µM [7]: -67%; inhibition at 0.1 µM [8]: -16%; inhibition at 1 µM [9]: -26%; inhibition at 1 µM [10]: -4%; IC50 (Lymphocyte): 1.6 µM
c1ccc2c(c1)cnn2CCc1ccc(OC2CCCCO2)cc1 (centres unmarked) [11αe, 1-(4-((Tetrahydro-2H-pyran-2-yl)oxy)phenethyl)-1H-indazole] | 54% | 88% | 33% | 8% | 9% | 20% | inhibition at 0.1 µM [7]: 23%; inhibition at 1 µM [9]: 20%; IC50 (Lymphocyte): 40 µM
c1ncn(CCc2ccc(OC3CCCCO3)cc2)n1 (centres unmarked) [11βa, 1-(4-((Tetrahydro-2H-pyran-2-yl)oxy)phenethyl)-1H-1,2,4-triazole] | 31% | 16% | 32% | 20% | 17% | 3% | 
Oc1ccc(CCn2cnc3ccccc32)cc1 [12αa, 1-(4-Hydroxyphenylethyl)-1H-benzo[d]imidazol hydrochloride] | 0.9% | -2.5% | -2.2% | -2.7% | -4.3% | -7.4% | 
Oc1ccc(CCOc2ccc(CCn3cnc4ccccc43)cc2)cc1 [12αb, 1-(4-(4-Hydroxyphenethoxy)phenethyl)-1H-benzo[d]imidazol hydrochloride] | -1% | 3% | -25% | -7% | -4% |  | percent change in peak amplitude vs DMSO control (negative = inhibition, positive = activation) at 100 µM [6]: 0%
Oc1ccc(CCOc2ccc(CCn3cnc4cc(F)ccc43)cc2)cc1 [12αc, 5-Fluoro-1-(4-(4-hydroxyphenethoxy)phenethyl)-1H-benzo[d]imidazol hydrochloride] | -3% | -1% | -20% | -11% | -2% | -5% | 
Oc1ccc(CCn2cnc3cc(F)ccc32)cc1 [12αd, 5-Fluoro-1-(4-hydroxyphenylethyl)-1H-benzo[d]imidazol hydrochloride] | -3% | 6.4% | -2.7% | -6% | -4.2% | -4.6% | 
Oc1ccc(CCn2ncc3ccccc32)cc1 [12αe, 1-(4-Hydroxyphenylethyl)-1H-indazole hydrochloride] | 18% | 8% | 5% | 11% | 29% | 28% | 
Oc1ccc(CCn2cncn2)cc1 [12βa, 1-(4-Hydroxyphenylethyl)-1H-1,2,4-triazole hydrochloride] | 10% | 12% | 8% | 8% | 14% | 8% | 
